What was measured:
Rattus norvegicus = assay: Hypotensive activity in po dosed spontaneously hypertensive Wistar-Okamoto rat assessed as dose required to cause 30 mmHg fall of blood pressure administered for 5 days; format: functional; details: 120 h, read-out: MED
[1] = Toxicity in po dosed mouse assessed as mortality after 7 days; details: in vivo

SMILES | minimal effective dose (Rattus norvegicus) | LD50 at 168 h [1]
CC(C)(C)C/N=C(\NC#N)Nc1ccncc1 | 5 mg/kg | 600 mg/kg
N#CN/C(=N\c1cccnc1)N1CCCCC1 | 20 mg/kg | > 1000 mg/kg
CC(C)C(/N=C(\NC#N)Nc1ccncc1)C(C)C | 8 mg/kg | 250 mg/kg
CCOc1ccccc1N/C(=N/C#N)NC(C)(C)CC | 20 mg/kg | > 1000 mg/kg
CCC(C)(C)N/C(=N\C#N)Nc1ccc(N(C)C)cc1 | > 50 mg/kg | > 1000 mg/kg
CCCC/N=C(\NC#N)Nc1cccnc1 | 20 mg/kg | > 1000 mg/kg
CC(NC(=NC#N)Nc1ccccc1)C(C)(C)C (stereo not drawn) | > 50 mg/kg | > 1000 mg/kg
CCC(C)(C)N/C(=N\C=O)Nc1cccnc1 | > 20 mg/kg | 600 mg/kg
N#CN/C(=N\Cc1ccccc1)Nc1cccnc1 | 20 mg/kg | > 1000 mg/kg
CO/N=C(/Nc1cccnc1)NC(C)(C)C | 50 mg/kg | > 1000 mg/kg
CC(C)(C)N/C(=N\O)Nc1cccnc1 | > 35 mg/kg | 1000 mg/kg
CCC(C)(C)N/C(=N\C#N)Nc1ccccc1 | 50 mg/kg | > 1000 mg/kg
N#CN/C(=N\C1CC1)Nc1cccnc1 | 20 mg/kg | > 1000 mg/kg
N#C/N=C(/Nc1cccnc1)NC12CC3CC(CC(C3)C1)C2 | 50 mg/kg | > 1000 mg/kg
N#CN/C(=N\C1CCCC1)Nc1cccnc1 | 20 mg/kg | 1000 mg/kg
CC(C)C(C)(C)/N=C(\NC#N)Nc1ccncc1 | 20 mg/kg | 1000 mg/kg
CCC(C)(C)N/C(=N\C#N)Nc1ccc[n+](C)c1.[I-] | 20 mg/kg | > 1000 mg/kg
CC(N/C(=N\C#N)NCc1ccncc1)C(C)(C)C (stereo not drawn) | 20 mg/kg | > 1000 mg/kg
CC(C)(C)N/C(=N\C#N)Nc1ccc(O)cc1 | > 50 mg/kg | > 1000 mg/kg
Cn1nc(-c2ccc(Cl)cc2)cc1N/C(=N/C#N)NC(C)(C)C | > 50 mg/kg | > 1000 mg/kg
CCC(C)(C)N/C(=N\C(=O)C(F)(F)F)Nc1cccnc1 | > 50 mg/kg | > 1000 mg/kg
C=C(C)C/N=C(\NC#N)Nc1cccnc1 | 20 mg/kg | 1000 mg/kg
N#CN/C(=N\C1CCCCC1)Nc1ccccn1 | > 35 mg/kg | 1000 mg/kg
CC(C)(C)N/C(=N\C#N)NCc1cccnc1 | 2.5 mg/kg | > 1000 mg/kg
Cc1cccc(C)c1N/C(=N/C#N)NC(C)(C)C | > 50 mg/kg | > 1000 mg/kg
CCC(C)(C)N/C(=N\O)Nc1cccnc1 | > 20 mg/kg | 600 mg/kg
N#CN/C(=N\C1CCCCCCC1)Nc1ccncc1 | > 20 mg/kg | 600 mg/kg

SMILES | minimal effective dose (Rattus norvegicus) | LD50 at 168 h [1]
CCN(CC)CC/N=C(\NC#N)Nc1cccnc1 | > 8 mg/kg | 250 mg/kg
CC(C)CC(C)(C)/N=C(\NC#N)Nc1ccncc1 | 20 mg/kg | > 1000 mg/kg
CC(C)C(C)(C)/N=C(\NC#N)Nc1cccnc1 | 1 mg/kg | > 1000 mg/kg
N#C/N=C(/Nc1ccncc1)NC12CC3CC(CC(C3)C1)C2 | 5 mg/kg | > 1000 mg/kg
Cc1noc(C)c1N/C(=N/C#N)NC(C)(C)C | 10 mg/kg | > 1000 mg/kg
CC(C)(C)N/C(=N\C#N)NCc1ccccn1 | > 20 mg/kg | 600 mg/kg
N#CN/C(=N\c1ccccc1)Nc1ccncc1 | 50 mg/kg | > 1000 mg/kg
CCCCC(CC)C/N=C(\NC#N)Nc1cccnc1 (stereo not drawn) | > 50 mg/kg | > 1000 mg/kg
CCC(CC)/N=C(\NC#N)Nc1ccncc1 | 2.5 mg/kg | 200 mg/kg
N#CN/C(=N\CCc1ccccc1)Nc1cccnc1 | 50 mg/kg | > 1000 mg/kg
CCC(C)(C)/N=C(\Nc1cccnc1)Nc1nccs1 | 20 mg/kg | > 1000 mg/kg
CCC/N=C(\NC#N)Nc1cccnc1 | 20 mg/kg | > 1000 mg/kg
CN1CCN(/C(=N/C#N)NC(C)(C)C)CC1 | > 50 mg/kg | > 1000 mg/kg
CCC(C)(C)N/C(=N\C#N)Nc1c(C)cccc1C | 50 mg/kg | > 1000 mg/kg
CCC(C)C(C)/N=C(\NC#N)Nc1ccncc1 (stereo not drawn) | 8 mg/kg | 250 mg/kg
Cc1cc(C)c(/N=C(\NC#N)NC(C)(C)C)c(C)n1 | > 50 mg/kg | > 1000 mg/kg
N#CN/C(=N\C1CCCCC1)Nc1cccnc1 | 20 mg/kg | > 1000 mg/kg
CCC(/N=C(\NC#N)Nc1ccncc1)C(C)C (stereo not drawn) | 5 mg/kg | 600 mg/kg
CC(C)CC(C)(C)/N=C(\NC#N)Nc1cccnc1 | 2.5 mg/kg | > 1000 mg/kg
CC(C)(C)C(C)(C)/N=C(\NC#N)Nc1cccnc1 | 50 mg/kg | > 1000 mg/kg
N#CN/C(=N\Cc1ccccc1)Nc1ccncc1 | 5 mg/kg | 600 mg/kg
CCC(C)(C)N/C(=N\S(=O)(=O)c1ccc(C)cc1)Nc1cccnc1 | > 50 mg/kg | > 1000 mg/kg
COc1ccc(/N=C(\NC#N)NC(C)(C)C)c(OC)n1 | > 50 mg/kg | > 1000 mg/kg
CC(C)(C)N/C(=N\C#N)NCCc1ccccn1 | 25 mg/kg | 800 mg/kg
CCn1nc(C)cc1N/C(=N/C#N)NC(C)(C)C | 10 mg/kg | > 1000 mg/kg
N#CNC(=N)Nc1cccnc1 | 50 mg/kg | > 1000 mg/kg
CC(C)(C)/N=C(\NC#N)Nc1ccc(Cl)cn1 | 25 mg/kg | 800 mg/kg

SMILES | minimal effective dose (Rattus norvegicus) | LD50 at 168 h [1]
CCC(C)(C)/N=C(\NC#N)Nc1ccncc1 | 2.5 mg/kg | 600 mg/kg
CC(C)CC(C)/N=C(\NC#N)Nc1ccncc1 (stereo not drawn) | 35 mg/kg | 1000 mg/kg
CC(C)C(=O)N(/C(=N\C#N)Nc1cccnc1)C(C)(C)C | 10 mg/kg | > 1000 mg/kg
CCC(CC)N/C(=N\O)Nc1cccnc1 | 50 mg/kg | > 1000 mg/kg
N#CN/C(=N\C(C1CC1)C1CC1)Nc1ccncc1 | 10 mg/kg | 600 mg/kg
CC(/N=C(\NC#N)Nc1ccncc1)C1CC1 (stereo not drawn) | 3 mg/kg | 200 mg/kg
CCOCC/N=C(\NC#N)Nc1cccnc1 | > 20 mg/kg | 600 mg/kg
CCC(C)(C)N/C(=N\c1cnccn1)Nc1cccnc1 | 25 mg/kg | 800 mg/kg
N#CN/C(=N\Cc1ccco1)Nc1cccnc1 | 20 mg/kg | > 1000 mg/kg
CC(C)(C)/N=C(\NC#N)Nc1cccnc1Cl | 5 mg/kg | > 1000 mg/kg
Cc1nn(C)c(N/C(=N/C#N)NC(C)(C)C)c1Cl | 20 mg/kg | > 1000 mg/kg
CCC(C)(C)/N=C(\NC#N)Nc1c(C)cc(C)nc1C | > 25 mg/kg | 800 mg/kg
CCC(C)(C)N/C(=N\C#N)NCCCN(C)C | 25 mg/kg | > 1000 mg/kg
CCC(C)(C)N/C(=N\C#N)Nc1cc(-c2ccc(Cl)cc2)nn1C | 50 mg/kg | > 1000 mg/kg
CCC(C)/N=C(\NC#N)Nc1cccnc1 (stereo not drawn) | 20 mg/kg | > 1000 mg/kg
CCOC(=O)/N=C(/Nc1cccnc1)NC(C)(C)CC | 20 mg/kg | 600 mg/kg
CCC(CC)/N=C(\NC#N)Nc1cccnc1 | 20 mg/kg | 600 mg/kg
C/N=C(\NC#N)Nc1cccnc1 | > 50 mg/kg | > 1000 mg/kg
CCC(C)(C)N/C(=N\C(N)=O)Nc1cccnc1 | > 50 mg/kg | > 1000 mg/kg
CCC(C)(CC)/N=C(\NC#N)Nc1cccnc1 | 0.5 mg/kg | > 1000 mg/kg
N#CN/C(=N\CC1CCCO1)Nc1cccnc1 (stereo not drawn) | 50 mg/kg | > 1000 mg/kg
CN(C)c1ccc(N/C(=N/C#N)NC(C)(C)C)cc1 | > 50 mg/kg | > 1000 mg/kg
Cc1cc(C)nc(N/C(=N/C(C)(C)C)NC#N)c1 | > 50 mg/kg | > 1000 mg/kg
Cc1noc(C)c1N/C(=N/C#N)NC(C)C(C)(C)C (stereo not drawn) | 20 mg/kg | > 1000 mg/kg
CC(C)(C)C(C)(C)/N=C(\NC#N)Nc1ccncc1 | 20 mg/kg | > 1000 mg/kg
